The source of these data is ChEMBL document CHEMBL1135385, “New highly active taxoids from 9beta-dihydrobaccatin-9,10-acetals. Part 2” (Bioorg Med Chem Lett, 2002).

In data set [1] the test system is PC-6. Kind of data set: Concentration required to obtain half of the maximal inhibition for cell growth in human small cell lung cancer(PC-6) was determined by using MTT assay when the cells were exposed to compound for 72 hr. It counts as functional. The following applies: PC-6, Lung. A general note: Tetrazolium assays rely on reduction of a dye to a coloured formazan, in cell work by metabolically active cells.

Another data set concerns PC-12. Nature of the data set: Concentration required to obtain half of the maximal inhibition for cell growth in human non-small cell lung cancer cell line(PC-12) was determined by using MTT assay when the cells were exposed to compound for 72 hr. The following applies: PC-12, Lung.
Data set [2] deals with PC-6. Kind of data set: Concentration required to obtain half of the maximal inhibition for cell growth in vincristine-resistant cell line expressing P-glycoprotein (PC-6/VCR29-9) was determined by using MTT assay when the cells were exposed to compound for 72 hr. It counts as functional. The note with it: Homo sapiens, PC-6, 72 h.
Data set [3] can be described thus: Solubility (JP2 at pH 6.8). It counts as physicochemical. The following applies: JP2, pH 6.8.
A short description of data set [4]: Solubility (JP1 at pH 1.2). The note with it: JP1, pH 1.2. It counts as physicochemical.

The structures appear in SMILES notation. Values after ≈ are worked out from the molar mass of the structure shown. Some results are limits rather than exact numbers.

A word on the GI50: it is the concentration that inhibits growth by half. Read a high GI50 as lower sensitivity of the cells. Turning to `CC(=O)O[C@@]12CO[C@@H]1CC[C@@]1(C)[C@@H]3OC(C)(C)O[C@@H]3C3=C(C)[C@@H](OC(=O)[C@H](O)[C@@H](NC(=O)OC(C)(C)C)c4ccncc4)C[C@@](O)([C@@H](OC(=O)c4ccccc4)[C@@H]12)C3(C)C`, the values for the GI50 in the data set on PC-6 [1], in the data set with PC-12 and in the data set on PC-6 [2] were 0.386 ng/mL (≈ 0.462 nM), 0.038 ng/mL (≈ 0.0455 nM) and 3.84 ng/mL (≈ 4.6 nM), respectively.
As a reminder, the solubility is the dissolved amount per volume that the medium holds. Read a high solubility as a readily soluble substance. As to `CC(=O)O[C@@]12CO[C@@H]1C[C@H](O)[C@@]1(C)C(=O)[C@H](O)C3=C(C)[C@@H](OC(=O)[C@H](O)[C@@H](NC(=O)OC(C)(C)C)c4ccccc4)C[C@@](O)([C@@H](OC(=O)c4ccccc4)[C@H]21)C3(C)C.O.O.O` [DOCETAXEL], the GI50 with PC-6 [1] was found to be 1.48 ng/mL; in the data set on PC-12 it was 42.2 ng/mL; in the data set with PC-6 [2] it was 135 ng/mL. Also, the solubility in data set [3] and in data set [4] was under 4 µg/mL in each case.
Take `CC(=O)O[C@@]12CO[C@@H]1CC[C@@]1(C)[C@@H]3OC(C)(C)O[C@@H]3C3=C(C)[C@@H](OC(=O)[C@H](O)[C@@H](NC(=O)OC(C)(C)C)c4ccccn4)C[C@@](O)([C@@H](OC(=O)c4ccccc4)[C@@H]12)C3(C)C`: the GI50 in the data set with PC-6 [1] is 0.145 ng/mL (≈ 0.174 nM); in the data set with PC-12, 0.116 ng/mL (≈ 0.139 nM); in the data set with PC-6 [2] it was 0.538 ng/mL (≈ 0.644 nM).
For `CO[C@H]1C[C@H]2OC[C@@]2(OC(C)=O)[C@H]2[C@H](OC(=O)c3ccccc3)[C@]3(O)C[C@H](OC(=O)[C@H](O)[C@@H](NC(=O)OC(C)(C)C)c4ccncc4)C(C)=C([C@H]4OC(C)(C)O[C@H]4[C@]12C)C3(C)C`, in that order: 0.229 ng/mL (≈ 0.265 nM), 2.26 ng/mL (≈ 2.61 nM) and 38.1 ng/mL (≈ 44 nM).
As for `CC(=O)O[C@@]12CO[C@@H]1CC[C@@]1(C)[C@@H]3OC(C)(C)O[C@@H]3C3=C(C)[C@@H](OC(=O)[C@H](O)[C@@H](NC(=O)OC(C)(C)C)c4ccccc4)C[C@@](O)([C@@H](OC(=O)c4ccccc4)[C@@H]12)C3(C)C`, the GI50 in the data set with PC-6 [1] amounted to 0.332 ng/mL (≈ 0.398 nM); in the data set with PC-12 it was 0.151 ng/mL (≈ 0.181 nM); with PC-6 [2], 2.91 ng/mL (≈ 3.49 nM).
As to `CC(=O)O[C@@]12CO[C@@H]1C[C@@H](F)[C@@]1(C)[C@@H]3OC(C)(C)O[C@@H]3C3=C(C)[C@@H](OC(=O)[C@H](O)[C@@H](NC(=O)OC(C)(C)C)c4ccncc4)C[C@@](O)([C@@H](OC(=O)c4ccccc4)[C@H]21)C3(C)C`, the GI50 in the data set on PC-6 [1] worked out at 0.266 ng/mL (≈ 0.312 nM); with PC-12, 0.13 ng/mL (≈ 0.152 nM); with PC-6 [2] it was 3.87 ng/mL (≈ 4.54 nM).
For `CC(=O)O[C@@]12CO[C@@H]1C[C@@H]1C[C@@]13[C@@H]1OC(C)(C)O[C@@H]1C1=C(C)[C@@H](OC(=O)[C@H](O)[C@@H](NC(=O)OC(C)(C)C)c4ccncc4)C[C@@](O)([C@@H](OC(=O)c4ccccc4)[C@H]23)C1(C)C`, in that order: 7.03 ng/mL (≈ 8.44 nM), 33.7 ng/mL (≈ 40.5 nM) and over 100 ng/mL.
In the case of `CC(=O)O[C@H]1C(=O)[C@@]2(C)[C@H]([C@H](OC(=O)c3ccccc3)[C@]3(O)C[C@H](OC(=O)[C@H](O)[C@@H](NC(=O)c4ccccc4)c4ccccc4)C(C)=C1C3(C)C)[C@]1(OC(C)=O)CO[C@@H]1C[C@@H]2O` [PACLITAXEL], the solubility in data set [3] and in data set [4] was under 4 µg/mL each time.
For the compound `CC(=O)O[C@@]12CO[C@@H]1C[C@H](O)[C@@]1(C)[C@@H]3OC(C)(C)O[C@@H]3C3=C(C)[C@@H](OC(=O)[C@H](O)[C@@H](NC(=O)OC(C)(C)C)c4ccncc4)C[C@@](O)([C@@H](OC(=O)c4ccccc4)[C@H]21)C3(C)C`, the GI50 with PC-6 [1] came out at 0.38 ng/mL (≈ 0.447 nM); with PC-12 it was 0.665 ng/mL (≈ 0.781 nM); in the data set with PC-6 [2], 13.5 ng/mL (≈ 15.9 nM). Also, the solubility in data set [3] was determined as 57 µg/mL (≈ 67000 nM); in data set [4], 333 µg/mL (≈ 391000 nM).
